This note sets out measurements from PubChem BioAssay AID330 (DTP/NCI, 2004).

“And” between values parts separate entries of the source, which are not always exact repeats. Equal entries are not always repeated. Inconclusive results and toxic doses are left out.

In this experiment the test system is P388 leukemia ip, CD2F1 mice, survival T/C. Nature of the experiment: NCI In Vivo Anticancer Drug Screen. Data for tumor model P388 Leukemia (intraperitoneal) in CD2F1 (CDF1) mice. As to conditions: endpoint: median survival time, higher = longer survival. In outline:
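Mice carrying the transplanted tumor received test compound or vehicle. Survival was recorded in each group, and the value is the treated-group measurement divided by that of the vehicle-treated control group.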

[1] abbreviates: dose: 50.0 mg/kg/injection, schedule: Q01DX009 (ip), vehicle: Klucel (hydroxypropylcellulose) (HPC).
Setting [2] is: dose: 100.0 mg/kg/injection, schedule: Q01DX009 (ip), vehicle: Klucel (hydroxypropylcellulose) (HPC).
Where [3] appears, read: dose: 200.0 mg/kg/injection, schedule: Q01DX009 (ip), vehicle: Klucel (hydroxypropylcellulose) (HPC).
[4] abbreviates: dose: 50.0 mg/kg/injection, schedule: Q01DX005 (ip), vehicle: Klucel (hydroxypropylcellulose) (HPC).
[5] abbreviates: dose: 100.0 mg/kg/injection, schedule: Q01DX005 (ip), vehicle: Klucel (hydroxypropylcellulose) (HPC).
[6] abbreviates: dose: 200.0 mg/kg/injection, schedule: Q01DX005 (ip), vehicle: Klucel (hydroxypropylcellulose) (HPC).
[7] abbreviates: dose: 60.0 mg/kg/injection, schedule: Q01DX005 (ip), vehicle: saline with Tween-80.
Where [8] appears, read: dose: 120.0 mg/kg/injection, schedule: Q01DX005 (ip), vehicle: saline with Tween-80.
[9] abbreviates: dose: 240.0 mg/kg/injection, schedule: Q01DX005 (ip), vehicle: saline with Tween-80.
Setting [10] is: dose: 12.5 mg/kg/injection, schedule: Q01DX005 (ip), vehicle: Klucel (hydroxypropylcellulose) (HPC).
Setting [11] is: dose: 25.0 mg/kg/injection, schedule: Q01DX005 (ip), vehicle: Klucel (hydroxypropylcellulose) (HPC).
[12] abbreviates: dose: 50.0 mg/kg/injection, schedule: Q01DX005 (ip), vehicle: saline with Tween-80.

In the case of `Cc1cc2nc3[nH]c4ccccc4c3nc2cc1C`, the T/C is 94 % of control (dose: 25.0 mg/kg/injection, schedule: Q01DX009 (ip), vehicle: suspension in saline); 92 % of control (dose: 50.0 mg/kg/injection, schedule: Q01DX009 (ip), vehicle: suspension in saline); 94 % of control (dose: 100.0 mg/kg/injection, schedule: Q01DX009 (ip), vehicle: suspension in saline); 92 % of control (dose: 200.0 mg/kg/injection, schedule: Q01DX009 (ip), vehicle: suspension in saline).
Consider `O=C(NCO)NS(=O)(=O)c1ccc(N2C(=O)c3ccccc3C2=O)cc1`, for which the T/C was 103 % of control under setting [1], 107 % of control under setting [2] and 112 % of control under setting [3].
Consider `C=C=CC(C)(O)c1ccc(-c2ccccc2)cc1` (stereo not given), for which the T/C is 97 % of control under setting [4], 100 % of control under setting [5] and 104 % of control under setting [6].
Turning to `OC(C1=NNC(C(O)c2ccccc2)=NN1)c1ccccc1` (stereo not given), the T/C reads like this: under setting [7], 92 % of control; under setting [8], 100 % of control; under setting [9], 102 % of control.
As for `NC(N)=Nc1ccc(-c2cc3cc(N=C(N)N)ccc3s2)cc1`, the T/C is 108 % of control (dose: 6.25 mg/kg/injection, schedule: Q01DX005 (ip), vehicle: Klucel (hydroxypropylcellulose) (HPC)); 105 % of control under setting [10]; 115 % of control under setting [11]; 168 % of control under setting [4].
Take `COc1ccc(C(O)c2ccc(OC)c(OC)c2)cc1OC`: the T/C is 100 % of control (dose: 25.0 mg/kg/injection, schedule: Q01DX009 (ip), vehicle: other); 100 % of control (dose: 50.0 mg/kg/injection, schedule: Q01DX009 (ip), vehicle: other); 96 % of control (dose: 100.0 mg/kg/injection, schedule: Q01DX009 (ip), vehicle: other); 89 % of control (dose: 200.0 mg/kg/injection, schedule: Q01DX009 (ip), vehicle: other); 89 % of control (dose: 400.0 mg/kg/injection, schedule: Q01DX009 (ip), vehicle: other).
`COC(=O)/C=C1\C2OC(C1C(=O)OC)C1OC(C)(C)OC21` (stereo not given): the T/C under setting [12] was 99 % of control; the T/C (dose: 100.0 mg/kg/injection, schedule: Q01DX005 (ip), vehicle: saline with Tween-80) was 103 % of control; the T/C (dose: 200.0 mg/kg/injection, schedule: Q01DX005 (ip), vehicle: saline with Tween-80) was 96 % of control.
With `O=C(Nc1ccc(NC2=NCCN2)cc1)c1cc(Cl)cc(C(=O)Nc2ccc(NC3=NCCN3)cc2)c1`, the T/C reads like this: under setting [10], 98 % of control; under setting [11], 102 % of control.
Turning to `C/C(=C\C(=O)Nc1ncn[nH]1)Nc1ncn[nH]1`, the T/C reads like this: under setting [1], 107 % of control; under setting [2], 100 % of control; under setting [3], 100 % of control; (dose: 400.0 mg/kg/injection, schedule: Q01DX009 (ip), vehicle: Klucel (hydroxypropylcellulose) (HPC)) 99 % of control.
For `COc1cc2c(cc1OC)C(C(=O)O)C1c3cc4c(cc3CCN1C2=O)OCO4` (stereo not given), the T/C (dose: 50.0 mg/kg/injection, schedule: Q04DX003 (ip), vehicle: distilled water + Tween-80) was 102 % of control and 115 % of control; the T/C (dose: 100.0 mg/kg/injection, schedule: Q04DX003 (ip), vehicle: distilled water + Tween-80) was 105 % of control and 100 % of control; the T/C (dose: 200.0 mg/kg/injection, schedule: Q04DX003 (ip), vehicle: distilled water + Tween-80) is 113 % of control and 100 % of control; the T/C (dose: 400.0 mg/kg/injection, schedule: Q04DX003 (ip), vehicle: distilled water + Tween-80) was 88 % of control and 100 % of control.
As to `OCCN(CCO)c1cc2c3ccccc3ccc2c2ccccc12`, the T/C is, setting by setting: under setting [4], 87 % of control; under setting [5], 103 % of control; under setting [6], 98 % of control.
With `Cc1c2oc3c(C)ccc(C(=O)NCCc4ccccc4)c3nc-2c(C(=O)NCCc2ccccc2)c(N)c1=O`, the T/C is, setting by setting: (dose: 50.0 mg/kg/injection, schedule: Q04DX003 (ip), vehicle: DMSO) 92 % of control; (dose: 100.0 mg/kg/injection, schedule: Q04DX003 (ip), vehicle: DMSO) 91 % of control; (dose: 200.0 mg/kg/injection, schedule: Q04DX003 (ip), vehicle: DMSO) 90 % of control.
Take `CCOC(=O)CC(=O)N(c1ccc(OC)cc1)C(C(=O)OC)c1ccccc1` (stereo not given): the T/C was 101 % of control under setting [7], 104 % of control under setting [8] and 104 % of control under setting [9].
Consider `C1=CCC23COCC2(C1)CSC3` (stereo not given), for which the T/C (dose: 12.5 mg/kg/injection, schedule: Q01DX009 (ip), vehicle: saline) was 96 % of control; the T/C (dose: 25.0 mg/kg/injection, schedule: Q01DX009 (ip), vehicle: saline) is 92 % of control; the T/C (dose: 50.0 mg/kg/injection, schedule: Q01DX009 (ip), vehicle: saline) is 99 % of control.
For `CC(C)=CCOc1cc(O)c(CC2=C(O)C(C)(C)C(=O)C(C(=O)C(C)C)=C2O)c(O)c1C(=O)c1ccccc1`, the T/C reads like this: (dose: 0.83 mg/kg/injection, schedule: Q01DX005 (ip), vehicle: DMSO) 110 % of control; (dose: 1.65 mg/kg/injection, schedule: Q01DX005 (ip), vehicle: DMSO) 103 % of control; (dose: 3.3 mg/kg/injection, schedule: Q01DX005 (ip), vehicle: DMSO) 103 % of control; (dose: 6.6 mg/kg/injection, schedule: Q01DX005 (ip), vehicle: DMSO) 88 % of control.
For `COCCCN=C(N)c1ccc(NC(=O)c2ccc(C(=O)Nc3ccc(C(N)=NCCCOC)cc3)cc2)cc1`, the T/C (dose: 1.65 mg/kg/injection, schedule: Q01DX009 (ip), vehicle: saline with Tween-80) was 154 % of control; the T/C (dose: 2.5 mg/kg/injection, schedule: Q01DX009 (ip), vehicle: saline with Tween-80) is 154 % of control; the T/C (dose: 3.75 mg/kg/injection, schedule: Q01DX009 (ip), vehicle: saline with Tween-80) is 195 % of control; the T/C (dose: 5.63 mg/kg/injection, schedule: Q01DX009 (ip), vehicle: saline with Tween-80) is 227 % of control; the T/C (dose: 6.6 mg/kg/injection, schedule: Q04DX003 (ip), vehicle: saline with Tween-80) is 155 % of control; the T/C (dose: 10.0 mg/kg/injection, schedule: Q04DX003 (ip), vehicle: saline with Tween-80) is 150 % of control. Besides, the T/C runs as follows: (dose: 12.5 mg/kg/injection, schedule: Q04DX003 (ip), vehicle: saline with Tween-80) 177 % of control; (dose: 15.0 mg/kg/injection, schedule: Q04DX003 (ip), vehicle: saline with Tween-80) 200 % of control; (dose: 25.0 mg/kg/injection, schedule: Q04DX003 (ip), vehicle: saline with Tween-80) 200 % of control; (dose: 50.0 mg/kg/injection, schedule: Q04DX003 (ip), vehicle: saline with Tween-80) 90 % of control.
For the compound `CN(C)CCNC(=O)c1ccc(C(=O)NCCN(C)C)c2c(C(=O)NCCN(C)C)ccc(C(=O)NCCN(C)C)c12`, the T/C (dose: 1.56 mg/kg/injection, schedule: Q01DX005 (ip), vehicle: saline with Tween-80) was 100 % of control; the T/C (dose: 3.13 mg/kg/injection, schedule: Q01DX005 (ip), vehicle: saline with Tween-80) was 106 % of control; the T/C (dose: 6.25 mg/kg/injection, schedule: Q01DX005 (ip), vehicle: saline with Tween-80) is 102 % of control and 109 % of control; the T/C (dose: 12.5 mg/kg/injection, schedule: Q01DX005 (ip), vehicle: saline with Tween-80) was 108 % of control.
`C[SiH]12(OC(C(F)(F)F)(C(F)(F)F)c3ccccc31)OC(C(F)(F)F)(C(F)(F)F)c1ccccc12`: the T/C runs as follows: (dose: 25.0 mg/kg/injection, schedule: Q01DX005 (ip), vehicle: saline with Tween-80) 100 % of control; under setting [12], 102 % of control.
Turning to `Cc1ccc(Nc2ncnc3c2c(=O)n(C)c(=O)n3C)cc1`, the T/C (dose: 30.0 mg/kg/injection, schedule: Q01DX005 (ip), vehicle: saline with Tween-80) was 88 % of control; the T/C under setting [7] is 90 % of control; the T/C under setting [8] was 90 % of control.
